# Like-named read-outs stand apart in the source and are kept apart here.
# Assays:
# E. coli (Wildtype) = assay: Disc sensitivity of E. coli strains; type: cell-based; conditions: wild type strains; no dose stated
# Excerpt: (§1) Since pathogens always try to counter the drug by genetically modifying itself through mutation(s) in the region of the drug target gene, it is necessary to kill those mutant(s) resistant cells for effective drug management. With this rationale, the applicants evaluated a selected drug resistant mutant strain (Ml) for nalidixic acid (wild type strains being sensitive to nalidixic acid). This mutant strain developed from wild type was defective in Gyr A subunit confirmed by mobilizing a plasmid bearing a wild type gyr A gene. […] Similarly a second mutant (M2) developed from the gyr A^− mutant strain (Nal^r) became sensitive to nalidixic acid which being resistant to α arteether (Table 3). It was noted that invariably among all the tested strains, those resistant to nalidixic acid were sensitive to α arteether and the strains sensitive to nalidixic acid were resistant to cc arteether. […] This is so, because the resistance to nalidixic acid is developed by gyr A mutation and the mutants will be killed by α arteether while, the α-arteether resistant strains will automatically become nalidixic acid sensitive and thus will be killed by nalidixic acid and this way all the spontaneous resistant bacteria could be contained.
# [1] = tested on: M1 (Mutant), gyr A− mutant; assay: Disc sensitivity of E. coli strains; type: cell-based; conditions: gyr A− mutant (M1) developed from wild type; no dose stated
# Excerpt: as §1
# M2 (Mutant) = assay: Disc sensitivity of E. coli strains; type: cell-based; conditions: second mutant (M2) developed from gyr A− mutant; no dose stated
# Excerpt: as §1
# [2] = tested on: Mycobacterium smegmatis (Wild type); assay: Frequency of spontaneous resistance on poison agar with nalidixic acid; type: cell-based; conditions: 50 μg/ml nalidixic acid poison agar
# Description: (§2) In an experiment, the applicants first determined the frequency of spontaneous mutations in the bacteria Escherchia coil (Kumar, S. 1976. Journal of Bacteriology, 125: 545-555.) and Mycobacterium smegmatis (Snapper, S. B., Melton, R. E., Mustafa, S., Kieser, T. and Jacobs, W. R. 1990. Molecular Microbiology. 4:1911-1919.) leading to subsequent resistance development through selection in the presence of these drugs. Known titers of broth cultures of the bacteria were diluted and plated on poison agar medium containing 50 μg/ml nalidixic acid, and the resistant colonies thus developed were counted to estimate the frequency of drug resistance (Nal) development (Table 1).
# [3] = tested on: Escherchia coli (Wild type); assay: as above; type: cell-based; conditions: 50 μg/ml nalidixic acid poison agar
# Description: as §2
# [4] = tested on: Escherchia coli mutant A2; assay: Minimum inhibitory concentration of nalidixic acid; type: cell-based
# Description: (§3) To determine the correlation between nalidixic acid and α-arteether sensitivity, the applicants selected Escherchia coli cultures which were resistant to nalidixic acid at varying degrees (concentrations). Based on the minimal inhibitory concentration of nalidixic acid, Escherchia coli mutants were grouped as highly sensitive (MIC less than or equal to 10 μg/ml), resistant (MIC 10 to 200 μg/ml), […] (MIC more than or equal to 200 μg/ml). These strains were then tested for their sensitivity against α-arteether by estimating their growth (Absorbance at 620 nano meter wavelength of light) in presence of increasing concentrations of α-arteether. The absorbance data was converted to percent growth by considering the absorbance in control as 100%. The growth was then quantified as follows: 1.) greater than 80% growth : the mutant is highly resistant to α-arteether; 2.) 20 to 80% growth : the mutant is moderately resistant to α-arteether; 3.) less than 20% growth : the mutant is sensitive to α-arteether. […] In other words Escherchia coli mutants most resistant to nalidixic acid are most efficiently killed by α-arteether (Table 4) and vice versa.
# [5] = tested on: Escherchia coli mutant A4; assay: Minimum inhibitory concentration of nalidixic acid; type: cell-based
# Description: as §3
# [6] = tested on: Escherchia coli mutant A1; assay: Minimum inhibitory concentration of nalidixic acid; type: cell-based
# Description: as §3
# [7] = tested on: Escherchia coli mutant A3; assay: Minimum inhibitory concentration of nalidixic acid; type: cell-based
# Description: as §3
# M1 + M2 (co-cultivation) = assay: Resistance study, combination treatment vs mixed mutant cultures (optical density at 620 nm); type: cell-based, E. coli
# Excerpt: (§4) Continuing with the experimentation the applicants analyzed the growth of the mutant strains individually and upon co-cultivation compared to the wild type in presence of the compounds individually and in combination.
# M2 = assay: as above; type: cell-based, E. coli
# Excerpt: as §4
# M1 = assay: as above; type: cell-based, E. coli
# Excerpt: as §4
# E. coli Wildtype = assay: as above; type: cell-based
# Excerpt: as §4
# [8] = tested on: gyr mutant (Nal^r) strains of E.coli; conditions: earlier invention; cited from earlier work
# Activity at different pH = conditions: pH (neutral)
# Description: Further, it is worth noting here that the said compounds of the invention are already in use for human consumption and the safety data of applications of the compounds are already known. As a known example of prior art (Asthana, O. P, Srivastava, J. S and Valecha, N., 1997. Current status of the artemisinin derivatives in the treatment of malaria with focus on arteether. Journal of Parasitic Diseases. 21: 1-12.), α/β arteether mixture is given at 150 mg doses (one dose per day, for 3 days) as intramuscular injection for treatment of drug resistant and cerebral malaria cases. The injections in the mentioned preparation are prepared in neutralized vegetable oil. Both the compounds of invention that is, α arteether and the quinolones have shown the best activities at pH 7.0 (neutral) in our experiments. Thus, the composition of this invention can be used to treat bacterial infections, particularly the cases where the emergence of drug resistance is known to have high incidence level. The said composition/composition can be employed for prevention of resistance development through random mutations occurring in bacteria against antibiotics. Various classes of quinolone drugs thus can be administered along with α-arteether in form of injection by suspending the compound in the neutralised vegetable oil. […]
# [9] = tested on: wild type (Nal^s) strains of E.coli; conditions: earlier invention; cited from earlier work
# [10] = tested on: Mycobacterium smegmatis (Nal′); assay: Frequency of spontaneous resistance on plates with α-arteether; type: cell-based; conditions: 1000 μg/ml α-arteether
# Description: (§5) Further to determine the frequency of spontaneous resistant mutants in Escherchia coil and Mycobacterium smegmatis for α-arteether, the applicants used the nalidixic acid resistant mutants from the earlier example as the wild type strains since those were sensitive to α-arteether to isolate α-arteether resistant colonies. Known titers of broth cultures of the mutant (Nal) bacteria were diluted and plated in petriplates containing 1000 μg/ml α-arteether, and the resistant colonies thus developed were counted to determine the frequencies (Table 2).
# Escherchia coli (Nal′) = assay: as above; type: cell-based; conditions: 1000 μg/ml α-arteether
# Description: as §5
# [11] = tested on: Escherchia coli mutant A2; assay: Growth (absorbance at 620 nm) at increasing concentrations of α-arteether; type: cell-based
# Description: as §3
# [12] = tested on: Escherchia coli mutant A4; assay: as above; type: cell-based
# Description: as §3
# [13] = tested on: Escherchia coli mutant A1; assay: as above; type: cell-based
# Description: as §3
# [14] = tested on: Escherchia coli mutant A3; assay: as above; type: cell-based
# Description: as §3
# [15] = read-out: Group by minimal inhibitory concentration of nalidixic acid
# [16] = read-out: Minimum inhibitory concentration of nalidixic acid
compound,measurement,setting,value
CCn1cc(C(=O)O)c(=O)c2ccc(C)nc21 [nalidixic acid],Sensitivity of the strain,E. coli (Wildtype),sensitive
same,Sensitivity of the strain,[1],resistant
same,Sensitivity of the strain,M2 (Mutant),sensitive
same,Frequency of spontaneous resistance developed against Nalidixic acid,[2],1.0 × 10^−10
same,Frequency of spontaneous resistance developed against Nalidixic acid,[3],7.1 × 10^−9
same,MIC,[4]; [15],10 to 200 µg/mL
same,MIC,[4]; [16],37.5 µg/mL
same,MIC,[5]; [15],> 200 µg/mL
same,MIC,[5]; [16],> 300 µg/mL
same,Group by minimal inhibitory concentration of nalidixic acid,[6]; mutant A1,sensitive)
same,MIC,[6]; [16],< 4 µg/mL
same,MIC,[7]; [15],10 to 200 µg/mL
same,MIC,[7]; [16],150 µg/mL
same,Optical density at 620 nanometer,M1 + M2 (co-cultivation); nalidixic acid 50 μg/ml,0.910
same,Optical density at 620 nanometer,M1 + M2 (co-cultivation); nalidixic acid 300 μg/ml,0.920
same,Optical density at 620 nanometer,M2; nalidixic acid 50 μg/ml,0.000
same,Optical density at 620 nanometer,M2; nalidixic acid 300 μg/ml,0.000
same,Optical density at 620 nanometer,M1; nalidixic acid 50 μg/ml,0.950
same,Optical density at 620 nanometer,M1; nalidixic acid 300 μg/ml,0.960
same,Optical density at 620 nanometer,E. coli Wildtype; nalidixic acid 50 μg/ml,0.000
same,Optical density at 620 nanometer,E. coli Wildtype; nalidixic acid 300 μg/ml,0.000
CCO[C@@H]1O[C@@H]2O[C@]3(C)CC[C@H]4[C@H](C)CC[C@@H]([C@H]1C)[C@@]24OO3 [α-arteether],Sensitivity of the strain,[1],sensitive
same,Sensitivity of the strain,M2 (Mutant),resistant
same,Effectiveness against the strains,[8],effective
same,pH of best activities,Activity at different pH,7.0
same,Effectiveness against the strains,[9],ineffective
same,Optical density at 620 nanometer,M1 + M2 (co-cultivation); α arteether 400 μg/ml,0.920
same,Optical density at 620 nanometer,M1 + M2 (co-cultivation); α arteether 800 μg/ml,0.930
same,Optical density at 620 nanometer,M2; α arteether 400 μg/ml,0.900
same,Optical density at 620 nanometer,M2; α arteether 800 μg/ml,0.91
same,Optical density at 620 nanometer,M1; α arteether 400 μg/ml,0.000
same,Optical density at 620 nanometer,M1; α arteether 800 μg/ml,0.000
same,Frequency of spontaneous resistance developed against α-arteether,[10],1.1 × 10^−10
same,Frequency of spontaneous resistance developed against α-arteether,Escherchia coli (Nal′),1.8 × 10^−9
same,Optical density at 620 nanometer,E. coli Wildtype; α arteether 400 μg/ml,0.890
same,Optical density at 620 nanometer,E. coli Wildtype; α arteether 800 μg/ml,0.90
same,Growth (absorbance at 620 nm),[11]; 400 μg/ml α-arteether,0.607
same,Percent growth (absorbance in control as 100%),[11]; 400 μg/ml α-arteether,(66%)
same,Growth (absorbance at 620 nm),[11]; 800 μg/ml α-arteether,0.539
same,Percent growth (absorbance in control as 100%),[11]; 800 μg/ml α-arteether,(58%)
same,Growth (absorbance at 620 nm),[11]; 1200 μg/ml α-arteether,0.458
same,Percent growth (absorbance in control as 100%),[11]; 1200 μg/ml α-arteether,(50%)
same,Growth (absorbance at 620 nm),[12]; 400 μg/ml α-arteether,0.017
same,Percent growth (absorbance in control as 100%),[12]; 400 μg/ml α-arteether,(2%)
same,Growth (absorbance at 620 nm),[12]; 800 μg/ml α-arteether,0.007
same,Percent growth (absorbance in control as 100%),[12]; 800 μg/ml α-arteether,(0.7%)
same,Growth (absorbance at 620 nm),[12]; 1200 μg/ml α-arteether,0.000
same,Percent growth (absorbance in control as 100%),[12]; 1200 μg/ml α-arteether,(0%)
same,Growth (absorbance at 620 nm),[13]; 400 μg/ml α-arteether,0.858
same,Percent growth (absorbance in control as 100%),[13]; 400 μg/ml α-arteether,(93%)
same,Growth (absorbance at 620 nm),[13]; 800 μg/ml α-arteether,0.854
same,Percent growth (absorbance in control as 100%),[13]; 800 μg/ml α-arteether,(93%)
same,Growth (absorbance at 620 nm),[13]; 1200 μg/ml α-arteether,0.817
same,Percent growth (absorbance in control as 100%),[13]; 1200 μg/ml α-arteether,(89%)
same,Growth (absorbance at 620 nm),[14]; 400 μg/ml α-arteether,0.421
same,Percent growth (absorbance in control as 100%),[14]; 400 μg/ml α-arteether,(50%)
same,Growth (absorbance at 620 nm),[14]; 800 μg/ml α-arteether,0.405
same,Percent growth (absorbance in control as 100%),[14]; 800 μg/ml α-arteether,(47%)
same,Growth (absorbance at 620 nm),[14]; 1200 μg/ml α-arteether,0.390
same,Percent growth (absorbance in control as 100%),[14]; 1200 μg/ml α-arteether,46%
